Results from PMC6554663, “Pharmaceutical Effects of Inhibiting the Soluble Epoxide Hydrolase in Canine Osteoarthritis” (Frontiers in Pharmacology, 2019).
In brackets after ≈: the same amount, converted by molar mass. Several values for one entry are separate records, joined by “and”; a condition that tells them apart may be missing. Equal values may be shown once. Read-outs that look alike come from different tables or passages of the source.

How the values were obtained:
[1] = Solubility of sEHI; type: physicochemical
Protocol: […] The non-dissolved compounds were filtered through a 0.22 μm centrifuge filter at 40°C and the supernatant was further diluted 10 times with methanol. The samples were analyzed by LC/MS-MS.

[2] = Microsomal stability; type: in vitro ADME, dog; conditions: 60 min, 37°C
Protocol: Male and female dog liver microsomes (Xenotech) were diluted in potassium phosphate buffer (0.1M, pH 7.4), MgCl2 (3.15 mM), and sodium EDTA (1.05 mM) to a final protein concentration of 1 mg/mL. Compounds were added at 0.1 mM in methanol at 1% and microsomes were activated with 5% (v/v) NADPH regenerating system (100 μL sodium phosphate buffer (0.1M, pH 7.4), 50 μL, glucose-6-phosphate in sodium phosphate buffer (0.1M, pH 7.4), 50 μL NADP+ in sodium phosphate (0.1M, pH 7.4), and 50 μL of 100 Units/mL of […]). […] Compounds were incubated without microsomes or NADPH as negative controls.

[3] = Blood and synovial fluid concentrations in treated osteoarthritic dogs; type: in vivo, dog; conditions: for Blood concentration D5 / Synovial fluid concentration D1 / Synovial fluid concentration D5: po, qd x 5, detected EC3039, individual dogs;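 for Synovial fluid concentration D1: synovial fluid also sampled on Day 1 after the pain assessment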
Protocol: (§1) Eight satellite dogs (2 per each group) had whole blood collected for PK analysis on study Days […]. On Day 1, blood was collected immediately prior to dosing, and again at 0.25, 0.5, 1, 2, 4, 6, and 8 (±5 min) after dosing. On Day 2 through 4, blood was collected 0.5 h (±5 min) after dosing. On Day 5 blood was collected immediately prior to dosing, and again at 0.25, 0.5, 1, 2, 4, 6, 8 (±5 min), 24, 48, and 72 h (±30 min) post treatment. […] For all blood samples, a minimum of 3 mL of whole blood was collected from a suitable vein as per written and approved standard operating procedures. The blood was transferred to K2EDTA (spray dried) blood tube and inverted gently multiple times to ensure proper mixing of the blood and anticoagulant. On study Day 5, synovial fluid was collected by arthrocentesis immediately after the subject completed the questionnaire (approximately […] after dosing). Subjects were anesthetized as per written and approved Standard Operating Procedures. A minimum of 0.1 mL of synovial fluid was collected from each subject. Samples were frozen in an upright position and stored at -80°C ± 4°C before being shipped to UC Davis for analysis.
Pain and function were assessed by a questionnaire answered by blinded technicians based on observation of study animals housed at InterVivo. The survey was adapted from the canine brief pain inventory (CBPI), which was developed based on clinical questionnaires in which owners score the function and pain level of their pets with existing pain conditions ([Brown et al., 2007]). Modifications to the questionnaire attempted to account for differences between owner pain evaluation of pets and pain evaluation of laboratory dogs by technical staff. For survey administration, blinded technicians attempted to elicit objective behavior-specific measures of function and pain level across a variety of normal canine behaviors (e.g., walking, trotting, galloping, rearing, and stair-climbing, etc.). For this, one technician was responsible for soliciting the relevant behaviors from a dog using encouragement and/or food rewards, while the evaluating technician scored function and observable pain using the modified CBPI questionnaire. Subjects were tested daily on Days -7 through -3, to develop baseline scores, and again on Days 1 through 5 administered 1.5 h after dosing. Dosing occurred in the morning, and observations were recorded 1.5 h after dosing, to limit time-of-day variability. Questions are listed in Supplementary Table S3. Animals in treatment groups had blood and synovial fluid collected ∼2 h after the last dose on day 5 (immediately following the study questionnaire) to confirm plasma concentrations in treated animals. Full pharmacokinetic assessments were collected from a satellite group of animals so as not to interfere with pain assessment.

[4] = PK analysis in satellite dogs; type: in vivo, dog; conditions: for half-life / AUC(0-t) / Cmax: whole blood; for AUC(0-t) / Cmax: po
Protocol: as §1
For PK analysis in the satellite group, individual parameters were calculated by fitting blood concentrations to a non-compartmental analysis using Kinetica software (Thermo Fisher Scientific version 5.1). Using the log-linear trapezoidal method, the area under the curve were calculated and were extrapolated to infinity using the last measured plasma concentration (Clast), defined as the timepoint collected 72 h after the last dose or 8 hr after the first dose on day 1, divided by the terminal slope (λz).

[5] = target: T1, Canine sEH (Canis lupus familiaris, UniProt A0A8I3NJL8); assay: Canine sEH inhibition IC50; type: biochemical; conditions: canine enzyme partially purified from liver cytosol
T1 construct: canine enzyme was partially purified on a Q-sepharose column from liver cytosol; from tissue; host or cells: dog liver cytosol, about 10-fold purification on Q-sepharose
T1 sequence (A0A8I3NJL8 1-556): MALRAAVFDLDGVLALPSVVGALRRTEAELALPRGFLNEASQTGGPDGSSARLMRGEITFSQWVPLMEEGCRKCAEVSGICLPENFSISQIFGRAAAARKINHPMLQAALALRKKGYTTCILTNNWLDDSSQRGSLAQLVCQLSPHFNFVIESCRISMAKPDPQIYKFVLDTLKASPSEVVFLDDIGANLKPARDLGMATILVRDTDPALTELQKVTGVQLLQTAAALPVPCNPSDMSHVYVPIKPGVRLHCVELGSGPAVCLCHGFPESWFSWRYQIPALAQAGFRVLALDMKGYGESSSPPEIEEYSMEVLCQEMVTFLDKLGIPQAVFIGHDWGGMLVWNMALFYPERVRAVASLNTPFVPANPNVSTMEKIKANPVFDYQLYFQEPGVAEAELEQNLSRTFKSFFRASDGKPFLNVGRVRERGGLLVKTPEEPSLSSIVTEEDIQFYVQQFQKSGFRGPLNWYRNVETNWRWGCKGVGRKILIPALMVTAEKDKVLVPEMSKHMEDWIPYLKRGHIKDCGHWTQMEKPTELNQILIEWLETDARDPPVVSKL

[6] = female, beagle, dog, 1 mg/kg, dosed EC3039 1 mg/kg oral qd, female dog, Day 1, detected EC3039, blood
[7] = female, beagle, dog, 1 mg/kg, dosed EC3039 1 mg/kg oral qd, female dog, Day 5, detected EC3039, blood
[8] = female, beagle, dog, 5 mg/kg, dosed EC3039 5 mg/kg oral qd, female dog, Day 1, detected EC3039, blood
[9] = female, beagle, dog, 5 mg/kg, dosed EC3039 5 mg/kg oral qd, female dog, Day 5, detected EC3039, blood
[10] = male, beagle, dog, 1 mg/kg, dosed EC3039 1 mg/kg oral qd, male dog, Day 1, detected EC3039, blood
[11] = male, beagle, dog, 1 mg/kg, dosed EC3039 1 mg/kg oral qd, male dog, Day 5, detected EC3039, blood
[12] = male, beagle, dog, 5 mg/kg, dosed EC3039 5 mg/kg oral qd, male dog, Day 1, detected EC3039, blood

solubility ([1]; PEG300, organic solvent or mixture): 99 ± 1 mg/mL (≈ 219 mM)
solubility at 24 h ([1]; aqueous buffer, thermodynamic from solid, PBS pH 7.4, 40°C, 24 h): 0.13 ± 0.015 mg/mL (≈ 0.287 mM)
% Parent + NADPH ([2]; female dog liver microsomes): 85% and 85 ± 2%
% Parent − NADPH ([2]; female dog liver microsomes): 93 ± 5%
% Parent − NADPH ([2]; male dog liver microsomes): 97 ± 4%
sEHI in blood and synovial fluid relative to dogs treated with EC1728 ([3]; high dose group (5 mg/kg)): ~10 ×
sEHI in blood and synovial fluid relative to dogs treated with EC1728 ([3]; low dose group (1 mg/kg)): approximately 2 ×
EC3039 in blood of dogs administered EC1728 ([4]; EC1728 at 1 mg/kg or 5 mg/kg): no detectable amounts
blood concentrations relative to IC50 for sEH ([4]; all treatment groups, duration of the study): exceeded the IC50
fold increase in AUC after fivefold increase in dose ([4]; beagle, dog, in vivo): ~18 fold
fold increase in Cmax after fivefold increase in dose ([4]; beagle, dog, in vivo): 30 to 40 fold
half-life ([4]; beagle, dog, oral, satellite dogs, range over both compounds, Table 3, read-out: half-life): 24 to 40 h
half-life ([4]; beagle, dosed EC3039 1 mg/kg oral qd, female dog, Day 5, detected EC3039, blood, read-out: T1/2 (converted)): 40 h
half-life ([4]; beagle, dosed EC3039 1 mg/kg oral qd, male dog, Day 5, detected EC3039, blood, read-out: T1/2 (converted)): 33 h
half-life ([4]; beagle, dosed EC3039 5 mg/kg oral qd, female dog, Day 5, detected EC3039, blood, read-out: T1/2 (converted)): 25 h
half-life ([4]; beagle, dosed EC3039 5 mg/kg oral qd, male dog, Day 5, detected EC3039, blood, read-out: T1/2 (converted)): 27 h
portion metabolized by demethylation to form EC1728 ([4]; dogs dosed EC3039): < 10%
AUC(0-t) [4, 6]: 3940 ng·h/mL
Cmax [4, 6]: 568 ng/mL
AUC(0-t) [4, 7]: 361000 ng·h/mL
Cmax [4, 7]: 17300 ng/mL
AUC(0-t) [4, 8]: 67200 ng·h/mL
Cmax [4, 8]: 18000 ng/mL
AUC(0-t) [4, 9]: 589000 ng·h/mL
Cmax [4, 9]: 30900 ng/mL
AUC(0-t) [4, 10]: 2490 ng·h/mL
Cmax [4, 10]: 400 ng/mL
AUC(0-t) [4, 11]: 72100 ng·h/mL
Cmax [4, 11]: 2300 ng/mL
AUC(0-t) [4, 12]: 46500 ng·h/mL
Cmax [4, 12]: 16900 ng/mL
Cmax ([4]; male, beagle, dog, 5 mg/kg, dosed EC3039 5 mg/kg oral qd, male dog, Day 5, detected EC3039, blood): 32100 ng/mL
IC50 [5]: 4.42 nM
Compound: CN(C(=O)N[C@H]1CC[C@H](Oc2ccc(C(=O)O)cc2)CC1)c1ccc(OC(F)(F)F)cc1 [EC3039, trans-4-{4-[3-methyl-3-(4-trifluoromethoxy-phenyl)-ureido]-cyclohexyloxy}-benzoic acid]
Blood concentration D5 ([3]; dosed EC3039 1 mg/kg, 1 mg/kg): 126 ng/mL and 176 ng/mL and 5340 ng/mL and 347 ng/mL and 346 ng/mL and 81 ng/mL and 408 ng/mL and 328 ng/mL
Synovial fluid concentration D1 ([3]; dosed EC3039 1 mg/kg, 1 mg/kg): 1220 ng/mL and 2710 ng/mL and 4100 ng/mL and 3350 ng/mL and 3100 ng/mL and 1390 ng/mL and 3430 ng/mL and 2100 ng/mL
Synovial fluid concentration D5 ([3]; dosed EC3039 1 mg/kg, 1 mg/kg): 1630 ng/mL and 1480 ng/mL and 11900 ng/mL and 1840 ng/mL and 1440 ng/mL and 586 ng/mL and 2190 ng/mL and 1930 ng/mL
Blood concentration D5 ([3]; dosed EC3039 5 mg/kg, 5 mg/kg): 859 ng/mL and 672 ng/mL and 5550 ng/mL and 6250 ng/mL and 722 ng/mL and 6190 ng/mL and 5650 ng/mL and 929 ng/mL
Synovial fluid concentration D1 ([3]; dosed EC3039 5 mg/kg, 5 mg/kg): 5850 ng/mL and 13570 ng/mL and 14290 ng/mL and 14240 ng/mL and 5220 ng/mL and 14300 ng/mL and 14700 ng/mL and 9520 ng/mL
Synovial fluid concentration D5 ([3]; dosed EC3039 5 mg/kg, 5 mg/kg): 5830 ng/mL and 4640 ng/mL and 9960 ng/mL and 12400 ng/mL and 16100 ng/mL and 11700 ng/mL and 5960 ng/mL
